Results: patent US20130029981A1, “COMPOUNDS, COMPOSITIONS, AND METHODS FOR CONTROLLING BIOFILMS” (Katholieke Universiteit Leuven, priority 2009, published 2013)
Like-named read-outs stand apart in the source and are kept apart here.

How the values were obtained:
[1] = system: Pseudomonas aeruginosa PA14; assay: Static peg assay for prevention of biofilm formation (Calgary device, crystal violet); type: cell-based
Procedure: (§1) Evaluation of the biofilm inhibitory activity of some substituted 2-amino-1H-imidazoles of the invention was carried out by growing up biofilms of S. Typhimurium ATCC14028 or SL1344 or Pseudomonas aeruginosa PA14 in the presence of different concentrations (1/2 dilution series) of biofilm inhibitors, by using the Calgary biofilm device. After an incubation period of 24 hours at 25° C. or 37° C. or 48 hours at 16° C. the biofilms were visualized by crystal violet staining. In the next step the stain was extracted from the biofilm with 30% acetic acid. The absorbance of the resolubilized stain at 570 nm is a measure of the amount of biofilm formed.
The device used for Pseudomonas aeruginosa biofilm formation is the same platform carrying polystyrene pegs as described above for Salmonella Typhimurium.
Two-fold serial dilutions of the compounds in 100 μl liquid broth per well were prepared in the microtiter plate. Subsequently, an overnight culture of P. aeruginosa PA14 (grown up in TSB medium) was diluted 1:100 into liquid broth and 100 μl was added to each well of the microtiter plates, resulting in a total amount of 200 μl medium per well. The pegged lid was placed on the microtiter plate and the plate was incubated for 24 hours at 25° C., 30° C. or 37° C. without shaking. During this incubation period biofilms were formed on the surface of the pegs. The liquid broth used for the tests at 25° C. was TSB 1/20. The tests at 37° C. were performed in CFA and/or LBNS broth. During incubation at 30° C. and 37° C. the plates were placed in a humidity controlled container to prevent evaporation of the growth medium. Quantification of biofilm formation was performed similarly as described previously for the S. Typhimurium biofilm assays.
as §1, with “imidazo[1,2-a]pyrimidinium bromide salts” for “2-amino-1H-imidazoles”
as §1, with “substituted imidazo[1,2-a]-pyrimidinium bromide and perchlorate salts produced according to examples 3 and 5” for “substituted 2-amino-1H-imidazoles of the invention”, “C.” for “C. or 37° C. or 48 hours at 16° C.”, “nm was taken as” for “nm is”

[2] = system: S. Typhimurium ATCC14028; assay: as above; type: cell-based, Salmonella Typhimurium
Procedure: as §1
In examples 2 and 3, the following materials and methods were used.
The device used for biofilm formation is a platform carrying 96 polystyrene pegs (Nunc no. 445497) that fits as a microtiter plate lid with a peg hanging into each microtiter plate well (Nunc no. 269789). Biofilm formation assays were carried out at 16° C., 25° C. and 37° C.
For biofilm assays at 16° C. and 25° C., two-fold serial dilutions of the compounds in 100 μl liquid TSB 1/20 broth per well were prepared in the microtiter plate. Subsequently, an overnight culture of S. Typhimurium ATCC14028 or SL1344 (grown up in LB medium) was diluted 1:100 into TSB 1/20 broth and 100 μl (ca. 10^6 cells) was added to each well of the microtiter plates, resulting in a total amount of 200 μl medium per well. The pegged lid was placed on the microtiter plate and the plate was incubated for 48 hours at 16° C. or for 24 hours at 25° C. without shaking. During this incubation period biofilms were formed on the surface of the pegs. In case of the assay at 16° C., after 24 hours the lid was transferred into a new plate with medium and the specific molecules used for testing. […] For quantification of biofilm formation, the pegs were washed once in 200 μl phosphate buffered saline (PBS). The remaining attached bacteria were stained for 30 minutes with 200 μl 0.1% (w/v) crystal violet in an isopropanol/methanol/PBS solution (v/v 1:1:18). Excess stain was rinsed off by placing the pegs in a 96-well plate filled with 200 μl distilled water per well. After the pegs were air dried (30 min), the dye bound to the adherent cells was extracted with 30% glacial acetic acid (200 μl). The OD570 of each well was measured using the VERSAmax microtiter plate reader. The IC50 value for each compound was determined from concentration gradients in two or three independent experiments (with 2 or 3 repeats per experiment), by using the GraphPad software of Prism.
For biofilm assays at 37° C., two-fold serial dilutions of the compounds in 50 μl liquid CFA broth per well were prepared in the microtiter plate. Subsequently, an overnight culture of S. Typhimurium ATCC 14028 was diluted 1:100 into CFA broth and 100 μl (ca. 10^6 cells) was added to each well of the microtiter plates, resulting in a total amount of 150 μl medium per well. The pegged lid was placed on the microtiter plate and the plate was incubated for 24 hours at 37° C. without shaking. During incubation the plates were placed in a humidity controlled container to prevent evaporation of the growth medium. Quantification of biofilm formation was performed similarly as described above for the assays at 16° C. and 25° C.
as §1, with “imidazo[1,2-a]pyrimidinium bromide salts” for “2-amino-1H-imidazoles”

[3] = 25° C., 24 hours, Table 15, read-out: (2) IC50 (biofilm inhibition)
[4] = 25° C., Table 16, read-out: P. aeruginosa IC50 (biofilm formation)
[5] = 25° C., 24 hours, Table 15, read-out: (1) IC50 (biofilm inhibition)
[6] = 25° C., Table 16, read-out: S. Typhimurium IC50 (biofilm formation)
[7] = Pseudomonas aeruginosa, PA14, 24 h, read-out: (2) IC50 (biofilm inhibition)
[8] = Salmonella enterica, 24 h, read-out: (1) IC50 (biofilm inhibition)

Structure (SMILES) | IC50 [1, 3] | IC50 [1, 4] | IC50 [2, 5] | IC50 [2, 6] | other results
CCCCCCCN1c2nccc[n+]2CC1(O)c1ccc(Cl)cc1 (racemic) [Compound 20] | ~12.5 µM | 36.9 µM | 6.67 µM | 6.7 µM | –
CCCCCCCCN1c2nccc[n+]2CC1(O)c1ccc(Cl)cc1 (racemic) [Compound 21] | 11.7 µM | 21.7 µM | 6.98 µM | 7 µM | –
CCCCCCCCCN1c2nccc[n+]2CC1(O)c1ccc(Cl)cc1 (racemic) [Compound 22] | 60.5 µM | 21 µM | 18.3 µM | 18.3 µM | –
CCCCCCCCCCN1c2nccc[n+]2CC1(O)c1ccc(Cl)cc1 (racemic) [Compound 23] | 193 µM | 66.4 µM | 51.3 µM | 51.3 µM | –
CCCCCCCCCCCN1c2nccc[n+]2CC1(O)c1ccc(Cl)cc1 (racemic) [Compound 24] | 205 µM | > 800 µM | 61.9 µM | 61.9 µM | –
CCCCCCCCCCCCN1c2nccc[n+]2CC1(O)c1ccc(Cl)cc1 (racemic) [Compound 25] | 119 µM | > 800 µM | 122 µM | 122 µM | –
CCCCCCCCCCCCCN1c2nccc[n+]2CC1(O)c1ccc(Cl)cc1 (racemic) [Compound 26] | 59 µM | > 800 µM | 316 µM | 316 µM | –
CCCCCCCCCCCCCCN1c2nccc[n+]2CC1(O)c1ccc(Cl)cc1 (racemic) [Compound 27] | – | > 800 µM | – | > 800 µM | –
CCN1c2nccc[n+]2CC1(O)c1ccc([N+](=O)[O-])cc1 (racemic) [Compound 29] | – | > 800 µM | – | 579 µM | –
CC(C)N1c2nccc[n+]2CC1(O)c1ccc([N+](=O)[O-])cc1 (racemic) [Compound 30] | – | 192 µM | – | 466 µM | –
CCCCCCCC[n+]1c(-c2cccc3ccccc23)cn2cccnc21.[O-][Cl+3]([O-])([O-])[O-] [1-octyl-2-(1-naphthalenyl)-imidazo[1,2-a]-pyrimidin-1-ium perchlorate] | – | – | – | – | IC50 [1, 7]: 6.83 µM; IC50 [2, 8]: ~6.6 µM
CCCCCCCC[n+]1c(-c2ccc(S(C)(=O)=O)cc2)cn2cccnc21.[O-][Cl+3]([O-])([O-])[O-] [1-octyl-2-(4-methylsulfonylphenyl)-imidazo[1,2-a]pyrimidin-1-ium perchlorate] | – | – | – | – | IC50 [1, 7]: 49.6 µM; IC50 [2, 8]: 82 µM
CCCCCCCC[n+]1c(-c2ccc(-c3ccc([N+](=O)[O-])cc3)cc2)cn2cccnc21.[O-][Cl+3]([O-])([O-])[O-] [1-octyl-2-(4′-nitro[1,1-biphenylyl]-4-yl)-imidazo[1,2-a]pyrimidin-1-ium perchlorate] | 1.04 µM | – | 1.49 µM | – | –
CCCCCCCC[n+]1c(-c2ccc(Cl)c(Cl)c2)cn2cccnc21.[O-][Cl+3]([O-])([O-])[O-] [2-(3,4-Dichlorophenyl)-1-octylimidazo[1,2-a]pyrimidin-1-ium perchlorate] | – | – | – | – | IC50 [1, 7]: 12.7 µM; IC50 [2, 8]: 3.84 µM
CCCCCCCC[n+]1c(-c2cccc(Br)c2)cn2cccnc21.[O-][Cl+3]([O-])([O-])[O-] [2-(3-Bromophenyl)-1-octylimidazo[1,2-a]pyrimidin-1-ium perchlorate] | – | – | – | – | IC50 [1, 7]: 7 µM; IC50 [2, 8]: 7.33 µM
CCCCCCCC[n+]1c(-c2ccc(F)cc2)cn2cccnc21.[O-][Cl+3]([O-])([O-])[O-] [2-(4-Fluorophenyl)-1-octylimidazo[1,2-a]pyrimidin-1-ium perchlorate] | – | – | – | – | IC50 [1, 7]: 19.5 µM; IC50 [2, 8]: 35.7 µM
CCCCCCCC[n+]1c(-c2ccc(OC)cc2)cn2cccnc21.[O-][Cl+3]([O-])([O-])[O-] [2-(4-Methoxyphenyl)-1-octylimidazo[1,2-a]pyrimidin-1-ium perchlorate] | – | – | – | – | IC50 [1, 7]: 8.73 µM; IC50 [2, 8]: 34.8 µM
CCCCCCCC[n+]1c(-c2ccc(SC)cc2)cn2cccnc21.[O-][Cl+3]([O-])([O-])[O-] [2-(4-Methylthiophenyl)-1-octylimidazo[1,2-a]pyrimidin-1-ium perchlorate] | – | – | – | – | IC50 [1, 7]: 9.29 µM; IC50 [2, 8]: 20.7 µM
CCCCN1c2nccc[n+]2CC1(O)c1ccc([N+](=O)[O-])cc1 (centres unmarked) [Compound 31] | – | 145 µM | – | 293 µM | –
CC(C)CN1c2nccc[n+]2CC1(O)c1ccc([N+](=O)[O-])cc1 (centres unmarked) [Compound 32] | – | 192 µM | – | 322 µM | –
CC(C)(C)N1c2nccc[n+]2CC1(O)c1ccc([N+](=O)[O-])cc1 (centres unmarked) [Compound 33] | – | 41.5 µM | – | 211 µM | –
CCCCCCCCN1c2nccc[n+]2CC1(O)c1ccc([N+](=O)[O-])cc1 (centres unmarked) [Compound 35] | 7.65 µM | 19.7 µM | 6.62 µM | 6.6 µM | –
CCCCCCCCCCN1c2nccc[n+]2CC1(O)c1ccc([N+](=O)[O-])cc1 (centres unmarked) [Compound 36] | – | 22.3 µM | 9.95 µM | 9.9 µM | –
CCCCCCCCN1c2nccc[n+]2CC1(O)c1ccc(F)cc1 (centres unmarked) [Compound 39] | 7.12 µM | 108 µM | 7.58 µM | 7.6 µM | –
CCCCCCCCN1c2nccc[n+]2CC1(O)c1ccc(OC)cc1 (centres unmarked) [Compound 46] | 13.6 µM | 90.2 µM | 10.5 µM | 10.5 µM | –
CCCCCCCCN1c2nccc[n+]2CC1(O)c1ccc(Cl)c(Cl)c1 (centres unmarked) [Compound 49] | ~12.3 µM | 11.6 µM | 7.09 µM | 7.1 µM | –
CCCCCCCCN1c2nccc[n+]2CC1(O)c1ccc(SC)cc1 (centres unmarked) [Compound 51] | 29 µM | – | ~13.2 µM | – | IC50 ([1]; 25° C., Table 17, read-out: P. aeruginosa IC50 (biofilm formation)): 36.5 µM; IC50 ([2]; 25° C., Table 17, read-out: S. Typhimurium IC50 (biofilm formation)): ~13.2 µM
CCCCCCCCN1c2nccc[n+]2C[C@@]1(O)c1cccc2ccccc12 [Compound 52] | – | – | – | – | IC50 ([1]; Pseudomonas aeruginosa, PA14, 25° C., Table 17, read-out: P. aeruginosa IC50 (biofilm formation)): 15.1 µM; IC50 ([1]; Pseudomonas aeruginosa, PA14, 24 h, 25° C., 24 hours, Table 15, read-out: (2) IC50 (biofilm inhibition)): 16.7 µM; IC50 ([2]; Salmonella enterica, 25° C., 24 hours, Table 15, read-out: (1) IC50 (biofilm inhibition)): 14.7 µM; IC50 ([2]; Salmonella enterica, 25° C., Table 17, read-out: S. Typhimurium IC50 (biofilm formation)): 14.7 µM
